Experimental data published in US11008321B2, “Crystalline form of an avibactam derivative” (ARIXA PHARMACEUTICALS, INC., priority 2019, dated 2021).

Columns and labels:
[1] = trans isomer vs cis isomer; cited from earlier work
[2] = Stability on exposure to ambient conditions and formulation processing; assay type: physicochemical
[3] = Jet milling, crystalline form by XRPD before and after; assay type: physicochemical; conditions: jet milled, particle size about 8.6 μm
Experimental: X-ray powder diffraction (XPRD) analysis was performed using a Panalytical X-Pert Powder XPRD (Malvem Panalytical Ltd.) on a Si zero-background holder. The 20 position was calibrated against a Panalytical Si standard disc. The X-ray wavelength was Kα2/Kα1 (1.540598 Å/1.544425 Å) at a 0.5 intensity ratio. The X-ray tube was set at an output voltage of 45 kV and a current of 40 mA. A ⅛° fixed divergence slit was used and the diffraction patterns were obtained from 3° to 40° (°2θ) in a continuous scan mode using a step size of 0.01310 (2θ) and a scan speed of 0.145 deg/min. Crystalline anhydrate (1) was jet milled to obtain a uniform particle size distribution centered at a about 8.6 μm. An Alpine 50AS (PDS-PL-JM-01) Jet Mill (Hosokawa Alpine) was used to prepare the formulation. The injector gas pressure was 4.0 Bar and the grinding gas pressure was 3.5 Bar. Five (5) gm of crystalline anhydrate (1) was gradually added to the jet mill and collected. The milled product was stored at a temperature from 2° C. to 8° C.

[4] = Stability in aqueous suspension formulation (XRPD); assay type: physicochemical; conditions: 25° C., 24 hours; 0.25 wt % Tween 80, 10 wt % PEG 400, 0.5 wt % methylcellulose, pH 3.0 citrate buffer
Experimental: X-ray powder diffraction (XPRD) analysis was performed using a Panalytical X-Pert Powder XPRD (Malvem Panalytical Ltd.) on a Si zero-background holder. The 20 position was calibrated against a Panalytical Si standard disc. The X-ray wavelength was Kα2/Kα1 (1.540598 Å/1.544425 Å) at a 0.5 intensity ratio. The X-ray tube was set at an output voltage of 45 kV and a current of 40 mA. A ⅛° fixed divergence slit was used and the diffraction patterns were obtained from 3° to 40° (°2θ) in a continuous scan mode using a step size of 0.01310 (2θ) and a scan speed of 0.145 deg/min. An aqueous formulation of crystalline anhydrate (1) was prepared by suspending 100 mg crystalline anhydrate (1) in 100 mL of an aqueous solution containing 0.25 wt % Tween® 80, 10 wt % PEG 400, 0.5 wt % methylcellulose (400 cps), and a pH 3.0 citrate buffer. The suspension was sonicated and equilibrated for 24 hours at 25° C. before filtering out the crystalline anhydrate (1).

[5] = Thermogravimetric analysis; assay type: physicochemical; conditions: 10° C./min, N2
Experimental: Thermogravimetric analysis was performed using a TA Instruments Q500 TGA calibrated using a nickel reference standard. Samples were placed in an open platinum pan and after equilibrating at 35° C., the samples were heated under a nitrogen (N2) atmosphere at a rate of 10° C./min to a final temperature of 200° C. TGA curves for crystalline ethyl 3-(((((1R,2S,5R)-2-carbamoyl-7-oxo-1,6-diazabicyclo[3.2.1]octan-6-yl)oxy)sulfonyl)oxy)-2,2-dimethylpropanoate anhydrate are shown in FIGS. 2 and 4 show a weight loss of 9.7% between 125° C. to 150° C. The weight loss form 30° C. to 125° C. was 0.77%.

[6] = Dynamic vapor sorption (hygroscopicity); assay type: physicochemical
Experimental: The hygroscopicity of crystalline ethyl 3-(((((1R,2S,5R)-2-carbamoyl-7-oxo-1,6-diazabicyclo[3.2.1]octan-6-yl)oxy)sulfonyl)oxy)-2,2-dimethylpropanoate anhydrate (1) was evaluated during one vapor sorption/desorption cycle using a SMS DVS Intrinsic from Surface Measurement Systems set at 25° C., with a nitrogen (N2) gas flow rate of 200 mL/min, a dm/dt of 0.02%/min and a minimum dm/dt stability duration of 10 min. Samples (10 mg to 20 mg) were first dried at 25° C. for 180 min under a nitrogen atmosphere. The samples were considered equilibrated with the weight change during a 2-min interval was less than 0.01%. To evaluate the DVS the samples were exposed to a humidity cycle ramped/de-ramped from 5% RH to 95% RH at 10% RH intervals. At each humidity interval, the samples were equilibrated as determined by a less than 0.01% weight change during 5 min.

SMILES: Nc1nc(/C(=C/CC(=O)O)C(=O)N[C@@H]2C(=O)N3C(C(=O)O)=CCS[C@H]23)cs1 [Ceftibuten, (6R,7R)-7-((Z)-2-(2-amino-4-thiazolyl)-4-carboxycrotonamido)-8-oxo-5-thia-1-azabicyclo(4.2.0)oct-2-ene-2-carboxylic acid]
- antibiotic activity of trans isomer relative to cis isomer [1]: about one-eighth

SMILES: CCOC(=O)C(C)(C)COS(=O)(=O)ON1C(=O)N2C[C@H]1CC[C@H]2C(N)=O [crystalline anhydrate (1), ethyl 3-(((((1R,2S,5R)-2-carbamoyl-7-oxo-1,6-diazabicyclo[3.2.1]octan-6-yl)oxy)sulfonyl)oxy)-2,2-dimethylpropanoate]
- stability following exposure to ambient conditions ([2]; 25° C./60% RH): stable
- stability during formulation processing conditions ([2]; formulation processing conditions): stable
- crystalline form before and after jet-milling (XRPD) [3]: the same
- stability in an aqueous suspension (XRPD similarity) [4]: stable
- weight loss (TGA) ([5]; 30° C. to 125° C.): 0.77%
- weight loss (TGA) ([5]; between 125° C. to 150° C.): 9.7%
- change of crystalline form during water absorption/desorption (reversibility of DVS isotherm) ([6]; 25° C., one sorption/desorption cycle, 5% RH to 95% RH): does not change
- maximum increase in mass (moisture absorption) ([6]; 25° C./95% RH, humidity range 0% RH to 95% RH, reversible): about 3 wt %
